Laboratory results published in patent publication US20230302036A1, “COMPOSITIONS FOR TREATMENT OF SPINAL MUSCULAR ATROPHY” (priority 2020, published 2023).
Oligonucleotides are written 5' to 3', each unit as a sugar letter and its base; * is a phosphorothioate linkage, no mark a phosphodiester; rarer units and linkages stand in square brackets, end groups in braces. Plain capitals give the bases only. e = 2'-O-(2-methoxyethyl) (MOE); [5mC] = 5-methylcytosine

Assays:
SMA = conditions: VPA plus carnitine; cited from earlier work
[1] = test system: H3K9me2 along SERF1A, MYOD, GAPDH; assay: Specificity control ChIP-qPCR of H3K9me2 on SERF1A, MYOD and GAPDH in HEK293T cells; assay type: cell-based, human
Description: FIGS. 6A-6D show antisense oligonucleotides and their effects on chromatin. […] Uppercase, exonic nucleotide sequence. Lowercase, intronic sequences. Upstream highlight, binding site for ASO1. Downstream highlight, binding site for ASO2. Levels of H3K9me2 deposition along small EDRK-rich factor 1A (SERF1A, upstream of SMN2) (FIG. 6B), Myoblast Determination Protein (MYOD) (FIG. 6C), and Glyceraldehyde 3-phosphate dehydrogenase (GAPDH) (FIG. 6D), were assessed by ChIP-qPCR in HEK293T cells. Data represented as mean ± S.D. (n = 4, *p < 0.05, two-tailed Student’s t test).
(§1) Approximately 2×10^6 HEK293T cells per sample were treated for 10 min in 1% (v/v) formaldehyde at room temperature to crosslink protein-DNA complexes. Crosslinking was stopped with glycine at a final concentration of 125 mM. Cells were washed twice with cold PBS and swelled on ice for 10 min in 25 mM HEPES pH 8, 1.5 mM MgCl2, 10 mM KCl, 0.1% NP-40, 1 mM DTT and 1× protease inhibitor cocktail set III (Calbiochem). Following Dounce homogenization, the nuclei were collected and resuspended in 1 ml sonication buffer (50 mM HEPES pH 8, 140 mM NaCl, 1 mM EDTA, 0.1% sodium deoxycholate, 0.1% SDS and 1× protease inhibitor cocktail). […] Immunoprecipitated DNA (1.5 µl) and serial dilutions of the 10% input DNA (1:4, 1:20, 1: 100, and 1:500) were analyzed by SYBR-Green real-time qPCR.

[2] = test system: total RNAPII along the human SMN2 transgene; assay: ChIP-qPCR of total RNAPII along the human SMN2 transgene in brain and liver of P7 SMA mice; assay type: in vivo, mouse; conditions: P7 SMA mice injected with ASO1
Description: (§2) H3K9me2 (left) and total RNAPII (right) distribution along the human SMN2 transgene, assessed by ChIP-qPCR, in brain (FIG. 12A) and liver (FIG. 12B) of P7 SMA mice injected with ASO1. Vertical arrows indicate the approximate location of the target site for ASO1 on the pre-mRNA. Three independent immunoprecipitation replicates were conducted per experiment. Data are represented as mean ± S.D. (n = 3, *p < 0.05, two-tailed Student’s t test).
as §1, with “cocktail). DNA was sonicated in an ultrasonic bath (Bioruptor Diagenode) to an average length of 200-500 bp. After addition of 1% (v/v) Triton X-100, samples were centrifuged at 15,000 ×g.” for “cocktail).”

[3] = test system: H3K9me2 along the human SMN2 transgene; assay: ChIP-qPCR of H3K9me2 along the human SMN2 transgene in brain and liver of P7 SMA mice; assay type: in vivo, mouse; conditions: P7 SMA mice injected with ASO1
Description: as §2
as §1, with “cocktail). DNA was sonicated in an ultrasonic bath (Bioruptor Diagenode) to an average length of 200-500 bp. After addition of 1% (v/v) Triton X-100, samples were centrifuged at 15,000 ×g.” for “cocktail).”

| Compound | clinical effectiveness in SMA (SMA) | H3K9 dimethylation in control genes (same TAD: SERF1A; outside TAD: MYOD, GAPDH) [1] | RNAPII accumulation on the SMN2 transgene in liver and brain [2] | H3K9 dimethylation on the SMN2 transgene in liver and brain [3] |
| --- | --- | --- | --- | --- |
| CCCC(CCC)C(=O)O [VPA, valproic acid] | failed to demonstrate effectiveness | – | – | – |
| ASO1: 5′-ATTCACTTTCATAATGCTGG-3′ 2′-O-methoxyethyl-modified oligonucleotide with phosphorothioate backbone and all 5-methyl cytosines; nusinersen variant with 2-nucleotide extension (antisense eA*eT*eT*e[5mC]*eA*e[5mC]*eT*eT*eT*e[5mC]*eA*eT*eA*eA*eT*eG*e[5mC]*eT*eG*eG) | – | neither ASO1 nor ASO2 promoted H3K9 dimethylation | RNAPII accumulation | higher H3K9 dimethylation |
